The record followed here is ChEMBL document CHEMBL1134073 (Bioorg Med Chem Lett, 2001).

In assay [1] the test system is MT4. In words: Antiviral activity against HIV in presence of 50% human serum in MT-4 cell was determined. It counts as functional, cell-based.
Assay [2] deals with Human immunodeficiency virus type 1 protease (Human immunodeficiency virus 1, UniProt Q72874). As to the kind of experiment: Inhibitory activity against HIV protease.

Turning to `Cc1cccc(C)c1OCC(=O)N[C@@H](Cc1ccccc1)[C@@H](O)C[C@H](Cc1ccccc1)NC(=O)[C@H](C(C)C)N1CCC(O)NC1=O` (stereo not given in full), the EC50 (as a rule, the concentration needed to bring the measured effect to its halfway point) in assay [1] was 2310 nM. Also, in assay [2], the Ki – broadly, a measure of affinity in units of concentration, obtained from inhibition or displacement – was determined as 0.0012 nM.

Turning to `Cc1cccc(C)c1OCC(=O)N[C@@H](Cc1ccccc1)[C@@H](O)C[C@H](Cc1ccccc1)NC(=O)[C@H](C(C)C)N1CCCNC1=O` [LOPINAVIR], the 50% effective concentration (EC50) in assay [1] was 104 nM.

In the case of `Cc1cccc(C)c1OCC(=O)N[C@@H](Cc1ccccc1)[C@@H](O)C[C@H](Cc1ccccc1)NC(=O)[C@H](C(C)C)N1CCC(=O)NC1=O`, the EC50 in assay [1] amounted to 1410 nM. Besides, the Ki in assay [2] is 0.0007 nM.
